Assay results from paper PMC2914574 (Journal of neurochemistry, 2010).
Like-named read-outs stand apart in the source and are kept apart here. Marks after values point to notes of the source that are not given here.

How the values were obtained:
hDAT W84L mutant = target: T1, hDAT W84L mutant (Homo sapiens, UniProt Q01959, W84L); assay: displacement of intact-cell [3H]CFT binding, W84L mutant hDAT
T1 sequence (Q01959 1-620 W84L): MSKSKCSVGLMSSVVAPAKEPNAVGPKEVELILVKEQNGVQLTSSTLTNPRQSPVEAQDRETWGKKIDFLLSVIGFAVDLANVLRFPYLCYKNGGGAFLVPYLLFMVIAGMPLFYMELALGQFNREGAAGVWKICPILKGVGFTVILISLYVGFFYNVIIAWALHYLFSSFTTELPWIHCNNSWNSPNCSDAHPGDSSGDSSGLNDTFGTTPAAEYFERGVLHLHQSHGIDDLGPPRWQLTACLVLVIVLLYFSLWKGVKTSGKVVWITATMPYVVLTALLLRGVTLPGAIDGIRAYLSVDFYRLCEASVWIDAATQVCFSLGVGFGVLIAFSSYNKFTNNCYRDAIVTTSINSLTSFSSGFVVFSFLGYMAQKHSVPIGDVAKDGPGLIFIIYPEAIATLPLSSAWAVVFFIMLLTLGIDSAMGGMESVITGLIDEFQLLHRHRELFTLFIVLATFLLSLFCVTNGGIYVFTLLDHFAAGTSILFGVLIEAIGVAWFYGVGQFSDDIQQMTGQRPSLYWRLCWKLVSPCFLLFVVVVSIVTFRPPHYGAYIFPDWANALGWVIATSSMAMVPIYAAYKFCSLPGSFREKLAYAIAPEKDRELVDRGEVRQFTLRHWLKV

wild-type hDAT = wild-type hDAT (Homo sapiens, UniProt Q01959); assay: displacement of intact-cell [3H]CFT binding, wild-type hDAT; conditions: for Ki: inhibition of [3H]CFT binding, intact HEK-hDAT cells, 21°C, 15 min; for fold increase in binding affinity over monovalent DA: relative to dopamine
hDAT D313N mutant = hDAT D313N mutant (Homo sapiens, UniProt Q01959, D313N); assay: displacement of intact-cell [3H]CFT binding, D313N mutant hDAT
WT hDAT [1] = target: T2, WT hDAT (Homo sapiens, UniProt Q01959); assay: inhibition of [3H]DA uptake in intact HEK-hDAT cells; assay type: cell-based; conditions: for Uptake Kapp, WT: inhibition of [3H]DA uptake, intact HEK-hDAT cells, 5 min; for Kapp / Ki ratio: uptake Kapp over binding Ki at WT hDAT
WT hDAT [2] = target: T2, WT hDAT; conditions: inhibition of [3H]DA uptake; ref Chen et al. (2004); cited from earlier work

T2 sequence (Q01959 whole entry): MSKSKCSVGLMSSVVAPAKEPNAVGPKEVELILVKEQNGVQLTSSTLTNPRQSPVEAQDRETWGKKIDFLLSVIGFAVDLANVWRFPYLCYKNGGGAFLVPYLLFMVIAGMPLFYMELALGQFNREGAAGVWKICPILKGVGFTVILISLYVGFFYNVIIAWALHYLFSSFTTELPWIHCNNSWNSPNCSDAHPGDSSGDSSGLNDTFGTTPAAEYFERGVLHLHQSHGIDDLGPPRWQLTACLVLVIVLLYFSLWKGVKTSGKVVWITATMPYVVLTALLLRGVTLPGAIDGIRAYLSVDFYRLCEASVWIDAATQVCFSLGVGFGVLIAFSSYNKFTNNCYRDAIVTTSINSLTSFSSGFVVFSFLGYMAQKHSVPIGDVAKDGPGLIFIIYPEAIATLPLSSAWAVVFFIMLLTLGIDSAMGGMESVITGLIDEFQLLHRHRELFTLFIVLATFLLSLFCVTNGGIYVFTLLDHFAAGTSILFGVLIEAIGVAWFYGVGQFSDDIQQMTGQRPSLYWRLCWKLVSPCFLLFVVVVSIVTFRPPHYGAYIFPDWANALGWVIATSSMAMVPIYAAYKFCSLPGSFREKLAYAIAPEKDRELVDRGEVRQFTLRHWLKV
Sequence of wild-type hDAT (Q01959 whole entry): as above
Sequence of hDAT D313N mutant (Q01959 whole entry D313N): as the sequence (Q01959 whole entry) above, with D313N counted along it

Compound: Oc1ccc(CCNCCCCCCNCCc2ccccc2)cc1O [dopexamine, reference compound]
- Ki (hDAT W84L mutant): 147 ± 5.09 nM
- Ki (wild-type hDAT; hDAT Binding Ki, WT): 96.9 ± 13.7 nM
- Ki (hDAT D313N mutant): 192 ± 20.6 nM
- Uptake Kapp, WT (WT hDAT [1]): 187.5 ± 19.2 nM

Compound: CC(CCc1ccc(O)c(O)c1)NCCc1ccc(O)c(O)c1 [Compound D-278, hydroxydobutamine]
- fold increase in affinity compared to dobutamine (wild-type hDAT; [3H]CFT binding, WT hDAT): 4 fold
- fold increase in binding affinity over monovalent DA (wild-type hDAT; [3H]CFT binding, WT hDAT): 74 fold
- Ki (wild-type hDAT; read-out: hDAT Binding Ki, WT): 58 ± 2.9 nM
- Ki (wild-type hDAT; read-out: hDAT Binding Ki, WT, listed as hydroxydobutamine): ~58 nM
- Uptake Kapp, WT (WT hDAT [1]): 187.5 ± 30.2 nM

Compound: CCCCCCNCCc1ccc(O)c(O)c1 [Compound D-363, N-hexyldopamine]
- fold weaker binding than the bivalent D-361 (wild-type hDAT; [3H]CFT binding, WT hDAT): 25 fold
- fold increase in binding affinity over monovalent DA (wild-type hDAT; [3H]CFT binding, WT hDAT): 2.5 fold
- Ki (wild-type hDAT; read-out: hDAT Binding Ki, WT): 1740 ± 191 nM
- fold loss of activity as inhibitor of [3H]DA uptake relative to dopamine (WT hDAT [1]; WT hDAT): > 7 fold
- Uptake Kapp, WT (WT hDAT [1]): 3075 ± 223 nM
- Kapp / Ki ratio (WT hDAT [1]): 1.8–2.5

Compound: CC(Cc1ccccc1)NCCCCCCNCCc1ccc(O)c(O)c1 [Compound D-371]
- fold increase in binding affinity compared to (d)-amphetamine (wild-type hDAT; [3H]CFT binding, WT hDAT): 6 fold
- fold increase in binding affinity over monovalent DA (wild-type hDAT; [3H]CFT binding, WT hDAT): 42 fold
- Ki (wild-type hDAT; read-out: hDAT Binding Ki, WT): 101 ± 13.4 nM
- Uptake Kapp, WT (WT hDAT [1]): 244.5 ± 21.5 nM

Compound: NCCc1ccccc1 [β-phenethylamine, reference compound]
- Ki (wild-type hDAT; read-out: hDAT Binding Ki, WT): 3261 ± 21.5 nM
- Uptake Kapp, WT (WT hDAT [1]): 1103 ± 206 nM

Compound: Oc1ccc(CCNCCCCCCNCCc2ccc(O)c(O)c2)cc1O [Compound D-361]
- fold increase in binding affinity over monovalent DA (wild-type hDAT; [3H]CFT binding, WT hDAT): 61 fold
- Ki (wild-type hDAT; read-out: hDAT Binding Ki, WT): 69.7 ± 9.54 nM
- Uptake Kapp, WT (WT hDAT [1]): 134.9 ± 17.5 nM

Compound: Oc1ccc(CCNCCCCCNCCc2ccc(O)c(O)c2)cc1O [Compound D-347]
- fold increase in binding affinity over monovalent DA (wild-type hDAT; [3H]CFT binding, WT hDAT): 51 fold
- Ki (wild-type hDAT; read-out: hDAT Binding Ki, WT): 83.3 ± 8.74 nM
- Uptake Kapp, WT (WT hDAT [1]): 171.5 ± 1.60 nM

Compound: Oc1ccc(CCNCCCNCCc2ccc(O)c(O)c2)cc1O [Compound D-307]
- fold increase in binding affinity over monovalent DA (wild-type hDAT; [3H]CFT binding, WT hDAT): 5 fold
- Ki (wild-type hDAT; read-out: hDAT Binding Ki, WT): 875 ± 71.4 nM
- Uptake Kapp, WT (WT hDAT [1]): 1691 ± 197 nM

Compound: Oc1ccc(CCNCCCCCCCCNCCc2ccc(O)c(O)c2)cc1O [Compound D-362]
- fold increase in binding affinity over monovalent DA (wild-type hDAT; [3H]CFT binding, WT hDAT): 82 fold
- Ki (wild-type hDAT; read-out: hDAT Binding Ki, WT): 51.9 nM
- Uptake Kapp, WT (WT hDAT [1]): 105.7 ± 2.98 nM

Compound: CC(Cc1ccccc1)NCCc1ccc(O)c(O)c1 [Compound D-279, dopamphetamine]
- fold increase in binding affinity compared to (d)-amphetamine (wild-type hDAT; [3H]CFT binding, WT hDAT): 2 fold
- Ki (wild-type hDAT; read-out: hDAT Binding Ki, WT): 342 ± 5.38 nM
- Uptake Kapp, WT (WT hDAT [1]): 605.3 ± 46.7 nM

Compound: CCCNC(C)Cc1ccccc1 (stereo not drawn) [(dl)-propylamphetamine, N-propylamphetamine, reference compound]
- Ki (wild-type hDAT; read-out: hDAT Binding Ki, WT): 988 ± 67.6 nM
- Uptake Kapp, WT (WT hDAT [1]): 2497 ± 138 nM
- Kapp / Ki ratio (WT hDAT [1]): 1.8–2.5

Compound: hydroxydopentamine [Compound D-310]
- Ki (wild-type hDAT; read-out: hDAT Binding Ki, WT): 91.4 ± 12.5 nM
- Uptake Kapp, WT (WT hDAT [1]): 155.3 ± 18.6 nM

Compound: C[C@H](N)Cc1ccccc1 [(d)-amphetamine, reference compound]
- Uptake Kapp, WT (WT hDAT [1]): 163.5 ± 4.57 nM

Compound: CC(NC(C)(C)C)C(=O)c1cccc(Cl)c1 (stereo not shown) [bupropion, reference compound]
- Uptake Kapp, WT (WT hDAT [1]): 576.5 ± 29.1 nM

Compound: CC(Cc1ccccc1)NCCCNCCc1ccc(O)c(O)c1 [Compound D-309]
- fold increase in binding affinity over monovalent DA (wild-type hDAT; [3H]CFT binding, WT hDAT): 13 fold
- Ki (wild-type hDAT; read-out: hDAT Binding Ki, WT): 322 ± 15.3 nM
- Uptake Kapp, WT (WT hDAT [1]): 740.8 ± 30.1 nM

Compound: CC(CCc1ccc(O)cc1)NCCc1ccc(O)c(O)c1 (stereo not drawn) [(dl)-dobutamine, dobutamine, reference compound]
- Ki (hDAT W84L mutant): 237 ± 23.9 nM
- fold increase in binding affinity over monovalent DA (wild-type hDAT; [3H]CFT binding, WT hDAT): 21 fold
- Ki (wild-type hDAT; hDAT Binding Ki, WT): 196 ± 14.3 nM
- Ki (hDAT D313N mutant): 257 ± 26.5 nM
- Uptake Kapp, WT (WT hDAT [1]): 329.4 ± 16.5 nM

Compound: CN1[C@@H]2CC[C@H]1C[C@@H](OC(c1ccccc1)c1ccccc1)C2 [benztropine, reference compound]
- Uptake Kapp, WT (WT hDAT [1]): 375.5 ± 6.35 nM

Compound: COC(=O)[C@H]1[C@@H](c2ccc(F)cc2)C[C@@H]2CC[C@H]1N2C [β-CFT, 2β-carbomethoxy-3β-(4-fluorophenyl)-tropane]
- Uptake Kapp, WT (WT hDAT [2]): 30.0 ± 4.0 ^b nM

Compound: COC(=O)[C@H]1[C@@H](OC(=O)c2ccccc2)C[C@@H]2CC[C@H]1N2C [cocaine]
- Uptake Kapp, WT (WT hDAT [2]): 246.0 ± 25.0 ^b nM

Compound: CC(Cc1ccccc1)NCCCCCCNCCc1ccccc1 [Compound D-370]
- Ki (wild-type hDAT; read-out: hDAT Binding Ki, WT): 97.8 ± 10 nM
- Uptake Kapp, WT (WT hDAT [1]): 204.7 ± 9.75 nM

Compound: CN[C@@H](C)Cc1ccccc1 [(d)-methamphetamine, reference compound]
- Ki (wild-type hDAT; read-out: hDAT Binding Ki, WT): 341 ± 42.7 nM
- Uptake Kapp, WT (WT hDAT [1]): 141.7 ± 18.8 nM
